Assay results reported in ChEMBL document CHEMBL3112509, “Synthesis and antimicrobial activity of (1,4-phenylene)bis(arylsulfonylpyrazoles and isoxazoles)” (2014).
Converted amounts (≈) assume the structure as drawn.

Experiments:
Type in all cases: functional
Penicillium chrysogenum [1] = assay: Antifungal activity against Penicillium chrysogenum after 48 hrs
Aspergillus niger [2] = assay: Antifungal activity against Aspergillus niger after 48 hrs
Penicillium chrysogenum [3] = assay: Antifungal activity against Penicillium chrysogenum after 48 hrs by broth dilution test
Klebsiella pneumoniae [4] = assay: Antibacterial activity against Klebsiella pneumoniae after 24 hrs
Aspergillus niger [5] = assay: Antifungal activity against Aspergillus niger after 48 hrs by broth dilution test
Klebsiella pneumoniae [6] = assay: Antibacterial activity against Klebsiella pneumoniae after 24 hrs by broth dilution test
Pseudomonas aeruginosa [7] = assay: Antibacterial activity against Pseudomonas aeruginosa after 24 hrs
Bacillus subtilis [8] = assay: Antibacterial activity against Bacillus subtilis after 24 hrs
Pseudomonas aeruginosa [9] = assay: Antibacterial activity against Pseudomonas aeruginosa after 24 hrs by broth dilution test
Bacillus subtilis [10] = assay: Antibacterial activity against Bacillus subtilis after 24 hrs by broth dilution test
Staphylococcus aureus [11] = assay: Antibacterial activity against Staphylococcus aureus after 24 hrs
Staphylococcus aureus [12] = assay: Antibacterial activity against Staphylococcus aureus after 24 hrs by broth dilution test
Penicillium chrysogenum [13] = assay: Antifungal activity against Penicillium chrysogenum at 100 ug/well after 48 hrs by agar well diffusion method; conditions: read-out: DIZ
Penicillium chrysogenum [14] = assay: Antifungal activity against Penicillium chrysogenum at 50 ug/well after 48 hrs by agar well diffusion method; conditions: read-out: DIZ
Aspergillus niger [15] = assay: Antifungal activity against Aspergillus niger at 50 ug/well after 48 hrs by agar well diffusion method; conditions: read-out: DIZ
Aspergillus niger [16] = assay: Antifungal activity against Aspergillus niger at 100 ug/well after 48 hrs by agar well diffusion method; conditions: read-out: DIZ
Klebsiella pneumoniae [17] = assay: Antibacterial activity against Klebsiella pneumoniae at 100 ug/well after 24 hrs by agar well diffusion method; conditions: read-out: DIZ
Klebsiella pneumoniae [18] = assay: Antibacterial activity against Klebsiella pneumoniae at 50 ug/well after 24 hrs by agar well diffusion method; conditions: read-out: DIZ
Pseudomonas aeruginosa [19] = assay: Antibacterial activity against Pseudomonas aeruginosa at 100 ug/well after 24 hrs by agar well diffusion method; conditions: read-out: DIZ
Pseudomonas aeruginosa [20] = assay: Antibacterial activity against Pseudomonas aeruginosa at 50 ug/well after 24 hrs by agar well diffusion method; conditions: read-out: DIZ
Bacillus subtilis [21] = assay: Antibacterial activity against Bacillus subtilis at 100 ug/well after 24 hrs by agar well diffusion method; conditions: read-out: DIZ
Bacillus subtilis [22] = assay: Antibacterial activity against Bacillus subtilis at 50 ug/well after 24 hrs by agar well diffusion method; conditions: read-out: DIZ
Staphylococcus aureus [23] = assay: Antibacterial activity against Staphylococcus aureus at 100 ug/well after 24 hrs by agar well diffusion method; conditions: read-out: DIZ
Staphylococcus aureus [24] = assay: Antibacterial activity against Staphylococcus aureus at 50 ug/well after 24 hrs by agar well diffusion method; conditions: read-out: DIZ

MIC (Penicillium chrysogenum [3]): 25 µg/mL (≈ 31.9 µM)
MIC (Aspergillus niger [5]): 12.5 µg/mL (≈ 16 µM)
MIC (Klebsiella pneumoniae [6]): 25 µg/mL (≈ 31.9 µM)
MIC (Pseudomonas aeruginosa [9]): 12.5 µg/mL (≈ 16 µM)
MIC (Bacillus subtilis [10]): 12.5 µg/mL (≈ 16 µM)
MIC (Staphylococcus aureus [12]): 12.5 µg/mL (≈ 16 µM)
Structure (SMILES): O=S(=O)(c1ccc(Cl)cc1)c1c(-c2ccc(Cl)cc2)noc1-c1ccc(-c2onc(-c3ccc(Cl)cc3)c2S(=O)(=O)c2ccc(Cl)cc2)cc1
MFC (Penicillium chrysogenum [1]): 50 µg/mL (≈ 63.9 µM)
MFC (Aspergillus niger [2]): 100 µg/mL (≈ 128 µM)
MBC (Klebsiella pneumoniae [4]): 100 µg/mL (≈ 128 µM)
MBC (Pseudomonas aeruginosa [7]): 50 µg/mL (≈ 63.9 µM)
MBC (Bacillus subtilis [8]): 25 µg/mL (≈ 31.9 µM)
MBC (Staphylococcus aureus [11]): 50 µg/mL (≈ 63.9 µM)
zone of inhibition at 100 µg/disc (Penicillium chrysogenum [13]): 37 mm
zone of inhibition at 50 µg/disc (Penicillium chrysogenum [14]): 35 mm
zone of inhibition at 50 µg/disc (Aspergillus niger [15]): 30 mm
zone of inhibition at 100 µg/disc (Aspergillus niger [16]): 33 mm
zone of inhibition at 100 µg/disc (Klebsiella pneumoniae [17]): 34 mm
zone of inhibition at 50 µg/disc (Klebsiella pneumoniae [18]): 32 mm
zone of inhibition at 100 µg/disc (Pseudomonas aeruginosa [19]): 27 mm
zone of inhibition at 50 µg/disc (Pseudomonas aeruginosa [20]): 25 mm
zone of inhibition at 100 µg/disc (Bacillus subtilis [21]): 38 mm
zone of inhibition at 50 µg/disc (Bacillus subtilis [22]): 35 mm
zone of inhibition at 100 µg/disc (Staphylococcus aureus [23]): 34 mm
zone of inhibition at 50 µg/disc (Staphylococcus aureus [24]): 32 mm
